According to patent US9855229B2, “Treatment of respiratory disorders using ROR-gamma inhibitors” (Glenmark Pharmaceuticals S.A., priority 2015, dated 2018):

What was measured:
[1] = test system: anti CD2/3/28 stimulated IL-17 release from PBMC of COPD patients; experiment: Ex-vivo IL-17 inhibition from PBMCs of COPD patients; type: cell-based, human; details: for IC50: average over patients, 72 hrs
Protocol: (§1) Ex vivo effect of ROR γt inhibitors were evaluated on tissue samples of eligible subjects suffering from moderate (Stage II), severe (Stage III) to very severe (Stage IV) COPD classified in accordance with GOLD guidelines.
Blood was collected in a heparin tube prior to bronchoscopy. 1:1 diluted blood was layered over Histopaque and centrifuged at 400 g, 30 min, at room temperature. The PBMC layer at the interface was aspirated and washed twice with PBS prior to re-suspension in 10% FBS containing media.
(§2) PBMCs or BAL cells were seeded at 1-2×10^5 cells per well onto 96-well flat bottomed plates pre-coated with 2 μg/ml of CD2 antibody (LEAF Purified, Biolegend, #300212) and 10 μg/ml of CD3 antibody (Purified NA/LE, BD, #555329). This was followed by the pre-treatment with compounds (concentrations ranging from 1 nM to 10 uM) and roflumilast for one hour prior to addition of 2 μg/ml of soluble CD28 antibody (LEAF purified, Biolegend, #302914). BAL cells and PBMC were then incubated at 37° C. for 72 hrs in 5% CO2 incubator, after which supematants were collected and stored at −80° C. prior to cytokine analysis.
(§3) Supematants were analysed for IL-17A using either the High Sensitivity ELISA (eBioscience), or the LEGEND MAX™ ELISA kit (Biolegend) according to the manufacturer's instructions.
(§4) IL-17 cytokine concentrations in the supematants were determined from the standard curve plot. Percent inhibition for each set treated with compound was calculated using the formula: Percent inhibition={100−(pg/ml of test compound/pg/ml of control×100)}. IC50 values were calculated from the dose response curves by nonlinear regression analysis using GraphPad Prism Software. Results

[2] = target: human RORγ receptor (GST-tagged ROR gamma ligand binding domain) (Homo sapiens (Human), UniProt P51449); experiment: TR-FRET assay for ROR gamma (Lantha Screen co-activator peptide recruitment); type: biochemical; details: 10 nM GST-tagged ROR gamma LBD, read-out: IC50 value for inhibiting human RORγ receptor activity
Chain of human RORγ receptor (GST-tagged ROR gamma ligand binding domain) (P51449 269-508): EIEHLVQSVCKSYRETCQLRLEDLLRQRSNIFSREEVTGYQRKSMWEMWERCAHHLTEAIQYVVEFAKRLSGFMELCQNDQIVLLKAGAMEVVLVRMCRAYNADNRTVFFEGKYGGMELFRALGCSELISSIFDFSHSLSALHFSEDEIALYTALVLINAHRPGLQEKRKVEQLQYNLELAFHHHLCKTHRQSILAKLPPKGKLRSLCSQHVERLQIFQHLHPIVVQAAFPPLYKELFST
From the text: The compounds described herein were screened for RORγ inhibitor activity using the TR-FRET assay by Lantha Screen as described in JBC 2011, 286, 26: 22707-10; and Drug Metabolism and Disposition 2009, 37, 10: 2069-78
TR-FRET Assay for ROR Gamma:
The assay is based on the principle that binding of the agonist to the RORγ causes a conformational change around helix 12 in the ligand binding domain, resulting in higher affinity for the co-activator peptide. The Fluorescein-D22 co-activator peptide used in the assay is recruited in the absence of a ligand. Binding of the co-activator peptide, causes an increase in the TR-FRET signal while binding of an inhibitor decreases the recruitment of the co-activator peptide, causing a decrease in the TR-FRET signal compared to a control with no test compound. The assay was performed using a two-step procedure, pre-incubation step with the test compound followed by the detection step on addition of the anti-GST tagged terbium (Tb) and fluorescein tagged fluorophores as the acceptor.
Test compounds or reference compounds such as T0901317 (Calbiochem) were dissolved in dimethylsulfoxide (DMSO) to prepare 10.0 mM stock solutions and diluted to the desired concentration. The final concentration of DMSO in the reaction was 4% (v/v). The assay mixture was prepared by mixing 10 nM of the GST-tagged ROR gamma ligand binding domain (LBD) in the assay buffer containing 25 mM HEPES (pH 7.4), 100 mM NaCl, 5 mM DTT and 0.01% BSA with or without the desired concentration of the test compound. The reaction was incubated at 22° C. for 1 hour. The pre-incubation step was terminated by addition of the detection mixture containing 300 nM Fluorescein-D22 co-activator peptide and 10 nM lantha screen Tb-anti GST antibody into the reaction mixture. After shaking for 5 minutes the reaction was further incubated for 1 hour at room temperature and read at 4° C. on an Infinite F500 reader as per the kit instructions (Invitrogen). The inhibition by test compound was calculated based on the TR-FRET ratio of 520/495. The activity was calculated as a percent of the control reaction. IC50 values were calculated from dose response curve by nonlinear regression analysis using GraphPad Prism software.

[3] = test system: anti CD2/3/28 stimulated IL-17 release from COPD lung BAL cells; experiment: Ex-vivo IL-17 inhibition from BAL cells of COPD patients; type: cell-based, human; details: for IC50: average over patients, 72 hrs
Protocol: as §1
Flexible fiber optic bronchoscopy was performed on 6 eligible subjects (COPD patients) after written valid consent and lignocaine nebulization. Bronchoscope was wedged into bronchus, pre-warmed sterile saline solution instilled into the lobes and bronchoalveolar lavage was collected in sterile container on ice. The filtrate was passed through the cell strainer for removing the particulate matter and centrifuged at 2000 rpm for 10 mins. The BAL cell pellet obtained was further treated with ACK buffer to lyse out the RBCs. Isolated BAL cells per suspended in 10% FBS containing medium.
as §2, §3, §4

[4] = test system: cigarette smoke (CS) induced pulmonary inflammation model in male C57BL6/J mice; experiment: Cigarette smoke (CS) induced pulmonary inflammation model, 7 days exposure, BAL cell count; type: in vivo; details: i.n., od, 7 days CS exposure; for CS mediated increase in macrophages in BALf / CS mediated increase in neutrophils in BALf / CS mediated increase in total leukocyte count (TLC) in BALf: BAL 20 hours after last smoke exposure
Protocol: Male C57BL/6 mice were exposed alternately to cigarette smoke (10 Kentucky Research Cigarettes 3R4F) and fresh air for 50 minutes (10 seconds cigarette smoke+5 seconds air for 19 puffs per cigarette) twice daily for 7 days in a whole-body box exposure system (SIU24, ProMech Lab Holding AB, Sweden). Test compounds were sonicated in 1×PBS containing 0.005% tween 80. For localized delivery to lung, animals were administered vehicle or test compounds intranasally (i.n.) (40 μl per animal) under isoflurane anaesthesia, once or twice in a day, 1 hour before smoke exposure. Non-drug-treated air and smoked control animals were given vehicle before exposure to fresh air or smoke as appropriate. Animals were sacrificed 20 hours after the last smoke exposure and subjected to bronchoalveolar lavage (BAL). Total and differential BAL cell count was performed.
BAL was performed at approximately 20 hours after final smoke exposure. Animals were euthanized with an overdose of urethane, trachea was exposed and BAL was performed 4 times using 0.3 ml PBS. All aspirates of BAL were pooled and total numbers of cells were determined using a hemocytometer. BALf was centrifuged. The cell pellet collected after centrifugation was resuspended in 15 μL serum and used for preparation of smears.
For cell differentials, slides were stained with Leishman's stain and a differential cell count of 500 cells based on standard morphology was performed manually.
Total and differential cell count was determined in the BALf. The results were expressed as percent inhibition of leukocytes in BALf. The change in the treatments was statistically evaluated by ANOVA followed by Dunnett's multiple comparisons test.

Compound: CCn1c(C(C)(C)Oc2ccc(F)cc2F)nc2cc(NC(=O)Cc3ccc(S(=O)(=O)CC)cc3)ccc21 [Compound 1]
- IC50 ([1]; Homo sapiens): 147 nM
- IC50 [2]: 4.26 nM
- IC50 ([3]; Homo sapiens): 350 nM

Compound: CCS(=O)(=O)c1ccc(CC(=O)Nc2ccc(OC(C)(C)c3ccc(Cl)cc3Cl)cc2)cc1 [Compound 3]
- IC50 [2]: 5.52 nM
- inhibition of pulmonary inflammation induced by cigarette smoke [4]: significant inhibition
- CS mediated increase in macrophages in BALf [4]: significantly prevented
- CS mediated increase in neutrophils in BALf [4]: significantly prevented
- CS mediated increase in total leukocyte count (TLC) in BALf [4]: significantly prevented

Compound: CCS(=O)(=O)c1ccc(CC(=O)Nc2ccc(OC(C)(C)c3ccc(Cl)cc3Cl)c(F)c2)cc1 [Compound 4]
- IC50 [2]: 5.99 nM

Compound: CCS(=O)(=O)c1ccc(CC(=O)Nc2ccc(C#CC(C)(C)Oc3ccc(Cl)c(F)c3)cc2)cc1 [Compound 5]
- IC50 [2]: 17.4 nM

Compound: CCS(=O)(=O)c1ccc(CC(=O)Nc2ccc(OC3(c4ccc(Cl)cc4Cl)CCOCC3)cc2)cc1 [Compound 9]
- IC50 ([1]; Homo sapiens): 360 nM
- IC50 [2]: 18.4 nM
- inhibition of pulmonary inflammation induced by cigarette smoke [4]: significant inhibition
- CS mediated increase in macrophages in BALf [4]: significantly prevented
- CS mediated increase in neutrophils in BALf [4]: significantly prevented
- CS mediated increase in total leukocyte count (TLC) in BALf [4]: significantly prevented
- IC50 ([3]; Homo sapiens): 2390 nM

Compound: CCS(=O)(=O)c1ccc(CC(=O)Nc2ccc(OC3(c4ccc(Cl)cc4Cl)CCOCC3)c(F)c2)cc1 [Compound 10]
- IC50 [1]: 367 nM
- IC50 [2]: 16.2 nM
- IC50 [3]: 720 nM

Compound: CCS(=O)(=O)c1ccc(CC(=O)Nc2ccc(OC(C)(C)c3ncc(Cl)cc3Cl)c(F)c2)cc1 [Compound 11]
- IC50 [1]: 84 nM
- IC50 [2]: 25.7 nM
- IC50 [3]: 2700 nM

Compound: O=C(Nc1c(Cl)cncc1Cl)c1ccc(OC(F)F)c(OCC2CC2)c1 [Roflumilast, reference compound]
- inhibition at 10 µM ([1]; Homo sapiens, at 10 μM, read-out: PBMC IL-17 percent inhibition): 20.2%
- inhibition at 10 µM ([3]; Homo sapiens, at 10 μM, read-out: BAL IL-17 percent inhibition): 6.75%
